{"source": "patent US12570957B2", "about": "“Isolated naive pluripotent stem cells and methods of generating same” (Yeda Research and Development Co. Ltd., priority 2013, dated 2026)", "key": {"naive hESCs/hiPSCs": {"system": "naive hESCs/hiPSCs", "experiment": "Substitution of p38 inhibitor in WIS-NHSM, OCT4-GFP expression", "type": "cell-based, human", "settings": "used instead of SB203580 in WIS-NHSM"}, "naive cells": {"system": "naive cells", "experiment": "Pluripotency (Oct4-GFP) after passaging with DNA methylation or EED inhibitors", "type": "cell-based, human and mouse", "settings": "Oct4-GFP reporter"}, "PKCμ": {"target": "T1, PKCμ (Homo sapiens, UniProt Q15139)", "T1 sequence (Q15139 1-912)": "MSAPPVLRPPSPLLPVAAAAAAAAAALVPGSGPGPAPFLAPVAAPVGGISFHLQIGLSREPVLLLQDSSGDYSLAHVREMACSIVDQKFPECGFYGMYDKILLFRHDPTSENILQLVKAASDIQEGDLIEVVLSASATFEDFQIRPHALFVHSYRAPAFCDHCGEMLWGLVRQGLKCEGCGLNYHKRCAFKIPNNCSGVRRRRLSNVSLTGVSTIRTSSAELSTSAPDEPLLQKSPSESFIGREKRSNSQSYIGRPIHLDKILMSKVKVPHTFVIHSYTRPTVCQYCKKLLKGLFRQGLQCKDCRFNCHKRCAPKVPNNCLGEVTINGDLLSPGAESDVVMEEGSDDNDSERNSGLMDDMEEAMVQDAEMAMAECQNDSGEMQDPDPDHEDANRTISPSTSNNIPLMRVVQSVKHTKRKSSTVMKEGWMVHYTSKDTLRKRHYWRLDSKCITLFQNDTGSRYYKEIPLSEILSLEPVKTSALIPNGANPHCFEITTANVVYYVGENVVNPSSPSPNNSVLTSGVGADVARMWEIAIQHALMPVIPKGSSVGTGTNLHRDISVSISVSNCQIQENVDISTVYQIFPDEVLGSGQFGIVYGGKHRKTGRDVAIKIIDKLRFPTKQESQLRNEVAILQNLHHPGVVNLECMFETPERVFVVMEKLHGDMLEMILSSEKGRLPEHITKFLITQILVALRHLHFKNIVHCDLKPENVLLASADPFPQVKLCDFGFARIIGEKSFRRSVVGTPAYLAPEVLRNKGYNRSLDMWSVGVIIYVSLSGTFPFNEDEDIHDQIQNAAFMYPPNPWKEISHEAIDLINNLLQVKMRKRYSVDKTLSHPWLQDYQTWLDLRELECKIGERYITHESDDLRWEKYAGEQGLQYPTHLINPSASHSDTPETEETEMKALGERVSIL", "settings": "read-out: IC50 for PKCp; cited from earlier work"}, "PKCγ": {"target": "PKCγ (Homo sapiens, UniProt P05129)", "settings": "read-out: IC50 for PKCy; cited from earlier work"}, "PKCβ": {"target": "PKCβ (Homo sapiens, UniProt P05771)", "sequence (P05771 whole entry, species assumed)": "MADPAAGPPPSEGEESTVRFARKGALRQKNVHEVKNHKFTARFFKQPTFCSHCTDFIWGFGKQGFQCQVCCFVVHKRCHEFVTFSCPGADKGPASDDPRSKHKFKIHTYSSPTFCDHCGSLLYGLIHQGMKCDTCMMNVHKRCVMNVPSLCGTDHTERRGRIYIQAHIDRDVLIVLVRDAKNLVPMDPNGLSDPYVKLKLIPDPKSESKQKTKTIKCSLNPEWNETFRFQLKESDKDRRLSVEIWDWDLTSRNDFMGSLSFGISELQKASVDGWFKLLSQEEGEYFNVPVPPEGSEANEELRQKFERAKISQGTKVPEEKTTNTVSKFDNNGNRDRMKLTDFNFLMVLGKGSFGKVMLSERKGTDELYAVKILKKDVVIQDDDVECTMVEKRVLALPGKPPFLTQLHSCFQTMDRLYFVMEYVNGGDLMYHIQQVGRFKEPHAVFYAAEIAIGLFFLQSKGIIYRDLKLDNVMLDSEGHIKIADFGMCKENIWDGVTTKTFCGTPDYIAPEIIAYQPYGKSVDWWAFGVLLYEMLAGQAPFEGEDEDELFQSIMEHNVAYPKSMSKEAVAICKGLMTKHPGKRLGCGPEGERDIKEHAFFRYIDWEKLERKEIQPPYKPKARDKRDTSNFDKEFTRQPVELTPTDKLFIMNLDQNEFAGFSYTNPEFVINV", "settings": "read-out: IC50 for PKC0; cited from earlier work"}, "MBD3": {"system": "MBD3", "experiment": "Western blot for MBD3 protein expression in V6.5 mouse ES cells after 4 days treatment", "type": "cell-based", "settings": "2i/LIF plus agent at 5 micromolar", "from_the_text": "FIGS. 1O1A-101B are Western blot analyses showing expression of MBD3 (FIG. 101B) and of HSP90 (FIG. 101A) in v6.5 mouse ES cells after different treatments. V6.5 mouse ES cells were expanded for 4 days in the indicated conditions and subjected to Western blot analysis for MBD3 protein expression. Following are the abbreviations and concentrations of the indicated factors and agents. PBS=phosphate buffered saline; “LIF”=leukemia inhibitory factor, provided at a concentration of 20 nanograms/milliliter (ng/ml); KSR=knockout serum replacement; “2i/LIF”=small-molecule inhibitors CHIR99021 (CH, 3 M—Axon Medchem) and PD0325901 (PD, 1 M—TOCRIS), with 20 ng/ml LIF; “DMSO”=Dimethyl sulfoxide at a concentration of 0.1%; TGFRi (inhibitor of transforming growth factor receptor; SB431542 at 5 micromolar); PKC-i (inhibitor of protein kinase C; Go6983 at 5 micromolar).\nV6.5 mouse ES cells were expanded for 4 days in various conditions in order to identify combination of factors which result in reduced MBD3 protein levels."}, "PKCδ": {"target": "PKCδ (Homo sapiens, UniProt Q05655)", "sequence (Q05655 whole entry)": "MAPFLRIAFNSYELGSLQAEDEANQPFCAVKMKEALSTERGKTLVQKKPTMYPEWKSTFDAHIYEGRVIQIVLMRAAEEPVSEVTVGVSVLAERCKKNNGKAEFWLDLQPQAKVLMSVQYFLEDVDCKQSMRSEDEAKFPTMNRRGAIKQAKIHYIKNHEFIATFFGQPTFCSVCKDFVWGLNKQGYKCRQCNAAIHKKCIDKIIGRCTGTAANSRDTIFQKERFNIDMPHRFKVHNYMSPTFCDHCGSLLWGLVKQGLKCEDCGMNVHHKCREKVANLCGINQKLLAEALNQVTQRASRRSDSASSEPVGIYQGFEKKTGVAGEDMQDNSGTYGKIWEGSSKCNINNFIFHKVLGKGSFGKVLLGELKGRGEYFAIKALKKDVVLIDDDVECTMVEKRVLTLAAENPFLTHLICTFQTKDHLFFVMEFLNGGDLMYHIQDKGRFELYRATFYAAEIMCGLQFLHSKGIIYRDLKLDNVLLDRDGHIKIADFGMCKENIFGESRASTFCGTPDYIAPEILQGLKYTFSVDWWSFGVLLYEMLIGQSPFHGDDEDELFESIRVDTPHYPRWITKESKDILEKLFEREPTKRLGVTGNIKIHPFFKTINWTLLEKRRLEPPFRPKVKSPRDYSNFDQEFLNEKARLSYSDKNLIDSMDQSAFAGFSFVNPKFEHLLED", "settings": "read-out: IC50 for PKC6; cited from earlier work"}, "PKCζ": {"target": "T2, PKCζ (Homo sapiens, UniProt Q05513)", "T2 sequence (Q05513 1-592)": "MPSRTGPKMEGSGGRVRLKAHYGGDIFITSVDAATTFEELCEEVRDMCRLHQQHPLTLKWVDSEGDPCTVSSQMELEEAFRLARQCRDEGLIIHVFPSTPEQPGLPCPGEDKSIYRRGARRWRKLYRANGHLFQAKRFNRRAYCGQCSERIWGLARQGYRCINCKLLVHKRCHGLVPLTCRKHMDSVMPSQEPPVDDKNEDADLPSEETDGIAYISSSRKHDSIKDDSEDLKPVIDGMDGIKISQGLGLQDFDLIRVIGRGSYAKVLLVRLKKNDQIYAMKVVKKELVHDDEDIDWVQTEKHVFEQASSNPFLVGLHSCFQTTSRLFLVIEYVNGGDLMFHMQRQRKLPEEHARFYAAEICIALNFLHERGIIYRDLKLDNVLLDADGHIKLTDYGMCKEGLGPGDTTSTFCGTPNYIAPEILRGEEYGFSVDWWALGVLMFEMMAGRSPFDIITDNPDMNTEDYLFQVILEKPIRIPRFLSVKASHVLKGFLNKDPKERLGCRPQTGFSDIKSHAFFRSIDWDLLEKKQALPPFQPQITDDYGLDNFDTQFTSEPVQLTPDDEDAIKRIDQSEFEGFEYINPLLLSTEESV", "settings": "read-out: IC50 for PKC; cited from earlier work"}, "PKCα": {"target": "PKCα (Homo sapiens, UniProt P17252)", "settings": "read-out: IC50 for PKCu; cited from earlier work"}, "primed hESCs and hiPSCs": {"system": "primed hESCs and hiPSCs", "experiment": "Single-cell cloning efficiency, primed cells", "type": "cell-based, human", "settings": "in the presence of ROCK inhibitor", "from_the_text": "(§1) FIGS. 74A-74D depict enhanced growth rate and single cell cloning efficiency of human naive pluripotent stem cells. FIG. 74A—Population doubling time of various mouse and human pluripotent stem cell lines. After plating each cell lines in replicates, cells were harvested at days 2,4 and 6 and there growth was normalized by counting cell number at each stage and calculating growth rate relative to the number of cells harvested and counted at day 2 (rather than number of plated cells to account for variability in survival after plating). Error bars represent s.d., and P values represent t-test of average from primed hESC/hiPSC lines to average of naive hESC/hiPSC lines. FIG. 74B—Single-cell cloning efficiency of different pluripotent stem cell lines as determined by the number of wells containing NANOG+ colonies 6 days after plating (with or without ROCK inhibitor as indicated in the figure). * indicates student's t-test P value <0.01 between the average of the compared groups. Error bars indicate s.d. […] Single-cell cloning efficiency of different pluripotent stem cell lines as determined by the number of wells containing Nanog+ colonies 6 days after plating (without using ROCK inhibitor as indicated in the figure). * indicates student's t-test P value <0.01 between the average of the compared groups. […]"}, "naive hPSCs": {"system": "naive hPSCs", "experiment": "Single-cell cloning efficiency, naive cells", "type": "cell-based, human", "settings": "in the presence of ROCK inhibitor", "from_the_text": "as §1"}, "Mbd3 binding to Chd4": {"target": "T3, Mbd3 binding to Chd4 (Homo sapiens, UniProt O95983)", "T3 construct": "expressed in transfected cells; host or cells: 293T cells", "T3 sequence (O95983 1-291)": "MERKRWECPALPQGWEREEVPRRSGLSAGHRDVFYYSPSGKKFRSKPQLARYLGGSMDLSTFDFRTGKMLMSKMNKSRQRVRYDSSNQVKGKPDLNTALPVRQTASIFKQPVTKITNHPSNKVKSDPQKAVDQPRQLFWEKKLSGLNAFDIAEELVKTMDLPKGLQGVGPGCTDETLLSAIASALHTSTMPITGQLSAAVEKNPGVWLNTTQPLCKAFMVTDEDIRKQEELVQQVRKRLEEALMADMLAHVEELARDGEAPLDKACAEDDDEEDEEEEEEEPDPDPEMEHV", "experiment": "Co-immunoprecipitation of Flag-Mbd3 interacting proteins in 293T cells", "type": "cell-based", "settings": "Flag-Mbd3 IP", "from_the_text": "293T cells were transfected with both with Flag-Mbd3 (WT) and P66a-CC (SEQ ID NO:71; GenBank Accession NO. NM_017660.3) or a control vector (mCherry), Mbd3 15 interacting proteins were pulled down by immunoprecipitation (IP) using Flag-magnetic beads.\nThe present inventors overexpressed MBD3-WT (SEQ ID NO: 112) and the HA-tagged p66u-CC in 293T cells, and further show in a co-immunoprecipitation for anti-Mbd3 pulldown, that the presence of p66u inhibits MBD3 binding and recruitment to CHD4 (FIG. 93)."}}, "data": [{"molecule": "Cc1ccc(-n2nc(C(C)(C)C)cc2NC(=O)Nc2ccc(OCCN3CCOCC3)c3ccccc23)cc1", "note": "[BIRB796]", "values": [{"measurement": "change in OCT4-GFP expression", "setting": "naive hESCs/hiPSCs", "result": "without any change"}]}, {"molecule": "Nc1ncn([C@H]2C[C@H](O)[C@@H](CO)O2)c(=O)n1", "note": "[Condition 5d-AZA]", "values": [{"measurement": "pluripotency after passaging in presence of inhibitor", "setting": "naive cells", "result": "retain their pluripotency"}]}, {"molecule": "Nc1nccc2c1ncn2C1C=C(CO)C(O)C1O", "note": "(stereo not shown) [DzNEP]", "values": [{"measurement": "pluripotency after passaging in presence of inhibitor", "setting": "naive cells", "result": "retain their pluripotency"}]}, {"molecule": "COc1ccc2c(c1)c(C1=C(c3c[nH]c4ccccc34)C(=O)NC1=O)cn2CCCN(C)C", "note": "[Go6983]", "values": [{"measurement": "IC50", "setting": "PKCμ", "result": 20, "unit": "µM"}, {"measurement": "IC50", "setting": "PKCγ", "result": 6, "unit": "nM"}, {"measurement": "IC50", "setting": "PKCβ", "result": 7, "unit": "nM"}, {"measurement": "MBD3 protein levels", "setting": "MBD3", "result": "significant depletion"}, {"measurement": "MBD3 protein levels", "setting": "MBD3; listed as PKC inhibitor", "result": "significant reduction"}, {"measurement": "IC50", "setting": "PKCδ", "result": 10, "unit": "nM"}, {"measurement": "IC50", "setting": "PKCζ", "result": 60, "unit": "nM"}, {"measurement": "IC50", "setting": "PKCα", "result": 7, "unit": "nM"}]}, {"molecule": "C[C@@H](N)[C@H]1CC[C@H](C(=O)Nc2ccncc2)CC1", "note": "[ROCK inhibitor, Y-27632]", "values": [{"measurement": "single cell cloning efficiency", "setting": "primed hESCs and hiPSCs", "result": "up to 22%"}, {"measurement": "single cell cloning efficiency", "setting": "naive hPSCs", "result": "up to 88%"}]}, {"molecule": "Oc1ccc(-c2nc(-c3ccncc3)c(-c3ccc(F)cc3)[nH]2)cc1", "note": "[SB202190]", "values": [{"measurement": "change in OCT4-GFP expression", "setting": "naive hESCs/hiPSCs", "result": "without any change"}]}, {"molecule": "NC(=O)c1ccc(-c2nc(-c3ccc4c(c3)OCO4)c(-c3ccccn3)[nH]2)cc1", "note": "[SB431542]", "values": [{"measurement": "MBD3 protein levels", "setting": "MBD3", "result": "did not affect"}]}, {"molecule": "P66a-CC: P66 alpha coiled-coil domain, SEQ ID NO:114, expressed by transfection (PEERERMIKQLKEELRLEEAKLVLLKKLRQSQIQKEATAQK; (1)..(41) P66 alpha coiled-coil domain; listed as Homo sapiens) [Condition P66a-CC]", "values": [{"measurement": "Chd4 interaction with Mbd3", "setting": "Mbd3 binding to Chd4", "result": "specific loss of Chd4 interaction with Mbd3"}]}]}
